Results taken from publication PMC3533232, “Isolation of the bioactive peptides CCHamide-1 and CCHamide-2 from Drosophila and their putative role in appetite regulation as ligands for G protein-coupled receptors” (Frontiers in Endocrinology, 2012).
Where a SMILES comes first, the peptide text is derived from it. Bridges are numbered along the chain shown (N, C = ends). Where no end group is shown, it is not given here.

Tests used:
[1] = tested on: CHO cells transfected with the vector alone; assay: [Ca2+]i response in CHO cells transfected with the vector alone; assay type: cell-based, Chinese hamster; conditions: data not shown
Experimental: (§1) An assay system using CG30106- or CG14593-expressing cells was prepared as previously described ([Ida et al., 2011a],[b]). The full-length cDNA of Drosophila CG30106 (GenBank accession number: NM_136355; residues […] to 1700) and CG14593 (GenBank accession number: NM_136355; residues 656–2185) was obtained by RT-PCR using Drosophila cDNA as the template. The sense and antisense primers for CG30106 were 5′-[…]-3′ and 5′-[…]-3′, respectively. The sense and antisense primers for CG14593 were 5′-[…]-3′ and 5′-[…]-3′, respectively. The amplified cDNA was ligated into the pcDNA3.1 vector (Invitrogen). The expression vector, i.e., CG30106 or CG14593-pcDNA3.1, was transfected into Chinese hamster ovary (CHO) cells by using with Fugene6 transfection reagent (Roche), and stably expressing cells were selected using 1 mg/ml G418. […] Changes in intracellular Ca^2^+ concentrations ([Ca^2^+]i) were measured using the FlexStation 3 fluorometric imaging plate reader to conduct high-throughput measurements of intracellular Ca^2^+ concentration (Molecular Devices, CA, USA; [Marshall et al., 2005]). […] The cells were incubated with 100 μl of Calcium 4 assay kit reagent (Molecular Devices) for 1 h, and then 50 μl of each sample was added to the CHO-CG30106 or CHO-CG14593 cells to induce changes in fluorescence. The maximum [Ca^2^+]i changes were recorded. […]

blowfly Phormia regina = assay: Proboscis extension reflex (PER) test; assay type: in vivo; conditions: 30 min after injection of 10 pmol (1 μl) into the shoulder, linger solution control 236 mM, p < 0.05, five sets of 20 flies
Experimental: The proboscis extension reflex (PER) test and feeding test were performed for the blowfly Phormia regina as previously described ([Nisimura et al., 2005]; [Ida et al., 2011a]). CCHamide-2 was dissolved in blowfly linger solution at a concentration of […]. Twenty flies were secured by their wings using washing pins, and the first PER test was performed by using 12 steps of sucrose concentrations that had been prepared by twofold serial dilutions in distilled water, beginning from a sucrose concentration of 1 M. We investigated the PER in three different groups of 20 flies each: no injection, fly linger injection, and fly linger plus peptide injection. The PER tests were performed 30 min after 1 μl of blowfly linger solution with or without peptide was injected into the shoulder of each fly. We repeated five sets of PER tests each, in which 20 flies were used in each batch.
Results are presented as the mean ± SEM for each group. To compare the PER thresholds among the three groups, we used a non-parametric Steel–Dwass test. The criterion for statistical significance was p < 0.05 for all tests. The statistical software program GraphPad PRISM (GraphPad software, CA, USA) was used for analyses.
In contrast, no difference was observed between the mean PER threshold without any injection and 30 min after linger solution injection (222 and 236 mM, respectively, p > 0.05). […]

flies = conditions: administration of CCHamide-2; ref Hiraguchi et al., paper in preparation; cited from earlier work
Source text: In addition, CCHamide-1 and CCHamide-2 have been detected in the nervous system and midgut in a mass spectrometry study performed by [Reiher et al. (2011)]. […] It is generally accepted that brain–gut peptides regulate feeding behavior in mammals ([Williams et al., 2001]). These peptides include neuropeptide Y, peptide YY, gastrin-releasing peptide, vasoactive inte ...

CG14593 = molecular target: T1, CG14593 (Drosophila melanogaster, UniProt Q4V622); assay: [Ca2+]i assay in CHO-CG14593 cells (FlexStation 3); assay type: cell-based; conditions: synthetic peptide not generated; predicted from amount of purified peptide and specific activity
T1 construct: expressed in transfected cells
T1 sequence (Q4V622 1-489): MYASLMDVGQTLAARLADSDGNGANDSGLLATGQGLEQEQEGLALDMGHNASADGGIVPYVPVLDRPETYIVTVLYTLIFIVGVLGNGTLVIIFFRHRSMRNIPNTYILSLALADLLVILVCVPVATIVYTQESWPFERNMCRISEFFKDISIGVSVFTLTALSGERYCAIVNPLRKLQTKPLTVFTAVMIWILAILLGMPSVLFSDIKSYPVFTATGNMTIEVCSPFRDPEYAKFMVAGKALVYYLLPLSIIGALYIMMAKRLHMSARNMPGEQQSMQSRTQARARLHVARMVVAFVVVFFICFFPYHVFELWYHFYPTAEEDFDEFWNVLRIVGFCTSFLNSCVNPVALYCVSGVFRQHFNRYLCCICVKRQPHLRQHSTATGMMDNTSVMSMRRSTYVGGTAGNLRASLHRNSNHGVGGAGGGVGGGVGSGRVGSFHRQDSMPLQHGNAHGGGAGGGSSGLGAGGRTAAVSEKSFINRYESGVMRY
Experimental: as §1

Compound: CC(C)C[C@@H]1NC(=O)[C@@H](NC(=O)[C@@H](N)CO)CSSC[C@@H](C(=O)N[C@@H](Cc2c[nH]c3ccccc23)C(=O)NCC(=O)N[C@@H](C)C(=O)N[C@@H](Cc2c[nH]cn2)C(N)=O)NC(=O)[C@H](CO)NC(=O)[C@H](Cc2c[nH]cn2)NC(=O)CNC(=O)[C@H](Cc2ccc(O)cc2)NC(=O)[C@H](CCC(=O)O)NC1=O [CCHamide-1] (H-SCLEYGHSCWGAH-NH2; disulfide 2-9)
- [Ca2+]i response in vector-only CHO cells [1]: Neither CCHamide-2 nor CCHamide-1 induced a response

Compound: CC(C)[C@@H]1NC(=O)[C@H](Cc2c[nH]cn2)NC(=O)CNC(=O)[C@H](Cc2ccc(O)cc2)NC(=O)[C@H](C)NC(=O)[C@H](CCC(N)=O)NC(=O)[C@@H](NC(=O)CN)CSSC[C@@H](C(=O)N[C@@H](Cc2ccc(O)cc2)C(=O)NCC(=O)NCC(=O)N[C@@H](Cc2c[nH]cn2)C(N)=O)NC1=O [CCHamide-2] (H-GCQAYGHVCYGGH-NH2; disulfide 2-9)
- [Ca2+]i response in vector-only CHO cells [1]: Neither CCHamide-2 nor CCHamide-1 induced a response
- mean PER threshold (sucrose concentration at which 50% of flies show PER) (blowfly Phormia regina): 77.2 mM
- sucrose intake (flies): significantly increased

Compound: KKGCQAYGHVCYGGH-NH2 (disulfide 4-11 (inferred); N-terminus assumed; SMILES CC(C)[C@@H]1NC(=O)[C@H](Cc2c[nH]cn2)NC(=O)CNC(=O)[C@H](Cc2ccc(O)cc2)NC(=O)[C@H](C)NC(=O)[C@H](CCC(N)=O)NC(=O)[C@@H](NC(=O)CNC(=O)[C@H](CCCCN)NC(=O)[C@@H](N)CCCCN)CSSC[C@@H](C(=O)N[C@@H](Cc2ccc(O)cc2)C(=O)NCC(=O)NCC(=O)N[C@@H](Cc2c[nH]cn2)C(N)=O)NC1=O) [N-terminal extended form of CCHamide-2 purified from flies; not synthesized]
- predicted potency for activating CG14593 (CG14593): high potency similar to that of other forms of CCHamide-2
